Assays:
[1] = Blue-light photo-degradation of A2E; format: physicochemical; conditions: bound to SapB (2 sapB:1 A2E) versus free; 30 min, pH 5.5
Text: We screened A2E photostability to blue light, whether in its free form or complexed to SapB (2 sapB:1 A2E) (see supplementary materials for details) with and without 1% DMSO (a known facilitator of blue induced photobleaching). […] The fact that SapB might play a role in mitigating photo-bleaching and providing a source of subsequent fluorescence is an interesting possibility, particularly in light of recent studies by Yamamoto et al. showing that SapB could regulate CoQ10 movement/levels within HepG2 cells.
In order to further examine the protective effects of sapB towards A2E in terms of photooxidation, additional ultraviolet spectroscopy was performed on a Varian Cary 50B Spectrophotomer. The stock solutions were prepared as follows: SapB in 50 mM phosphate buffer, pH 5.5 and A2E in 100% methanol or 100% DMSO. The samples were exposed to blue light in five-minute increments and monitored after each exposure for a total of 30 min. The data was further analyzed with OriginLab software version 8. The final product was examined via mass spectroscopy to identify products as a result of blue light exposure. Evidence for photooxidized species are clearly indicated.

[2] = test system: retinoic acid receptor (RAR); conditions: cited from earlier work
HRP = target: T1, HRP (Armoracia rusticana, UniProt P00433); test: A2E degradation by HRP/H2O2, absorbance kinetics at 340 nm; format: biochemical
T1 sequence (P00433 31-338): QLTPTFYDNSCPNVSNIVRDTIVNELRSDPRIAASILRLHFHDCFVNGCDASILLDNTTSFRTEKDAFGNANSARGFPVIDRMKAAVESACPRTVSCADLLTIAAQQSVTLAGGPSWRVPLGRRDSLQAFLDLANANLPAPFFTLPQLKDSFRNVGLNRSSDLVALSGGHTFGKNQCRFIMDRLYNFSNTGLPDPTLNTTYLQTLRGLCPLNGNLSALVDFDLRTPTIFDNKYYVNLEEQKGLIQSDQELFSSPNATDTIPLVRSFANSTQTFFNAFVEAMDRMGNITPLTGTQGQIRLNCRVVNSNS
Text: Horseradish peroxidase (HRP) is reported to cleave the bis-retinoid A2E. Thus, the ability of SapB to protect A2E from oxidative transformations by HRP was investigated.
In classic peroxidases, it is believed that reaction with hydrogen peroxide gives rise to two oxidizing equivalents (i.e. a porphyrin radical-cation and an Fe(IV)-oxo (ferryl) species) due to exposure of the prosthetic heme group to the bulk solution. […] Having established the presence of two different binding sites on SapB (one for A2E and one for CoQ10), the ability of SapB to protect A2E in the presence of CoQ10 was tested.
Conventional ultraviolet visible spectroscopy was performed on a Varian Cary 50 Bio spectrophotometer from Agilent Technologies. The stock solutions of various reagents were prepared as follow: HRP in DI water, A2E in DMSO, SapB in 50 mM phosphate buffer, pH 5.5, CoQ10 in THF (tetrahydrofurane) and 3% H2O2 solution diluted in DI water from an initial stock at 30%. The 340 nm kinetic experiments were monitored every 5 minutes for a total of 400 min following the sequential addition of all reagents as indicated in FIG. 4. The HRP solution of FIG. 5 was prepared in 20 mM phosphate buffer, 1% tween, pH 5.5, 25° C. All concentrations given in the figure caption are final concentrations following mixing of the reagents. The spectrophotometric data were further analyzed with OriginLab software version 8.

arylsulfatase A (ASA) = target: T2, arylsulfatase A (ASA) (Homo sapiens, UniProt P15289); conditions: at a set time-point; cited from earlier work
T2 sequence (P15289 19-507): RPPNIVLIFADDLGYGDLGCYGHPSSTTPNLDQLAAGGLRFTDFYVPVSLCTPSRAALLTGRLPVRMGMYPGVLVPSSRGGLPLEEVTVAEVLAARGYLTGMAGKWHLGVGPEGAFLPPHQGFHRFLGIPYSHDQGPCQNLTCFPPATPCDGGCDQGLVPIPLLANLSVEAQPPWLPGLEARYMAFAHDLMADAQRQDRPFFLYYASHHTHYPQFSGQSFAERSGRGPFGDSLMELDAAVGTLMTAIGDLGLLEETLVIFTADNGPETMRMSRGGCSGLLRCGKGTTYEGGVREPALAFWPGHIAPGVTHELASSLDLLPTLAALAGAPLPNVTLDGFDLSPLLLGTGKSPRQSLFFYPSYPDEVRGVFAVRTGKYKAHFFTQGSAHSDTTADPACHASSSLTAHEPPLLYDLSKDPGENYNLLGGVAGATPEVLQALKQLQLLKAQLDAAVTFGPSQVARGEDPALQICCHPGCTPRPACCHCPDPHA

A2E degradation over time under blue light (decline in slopes) [1]: significantly reduced | absorbance of A2E at 340 nm after H2O2 added to A2E containing HRP (HRP; free A2E): decrease in the absorbance value
Structure (SMILES): CC(C=CC1=C(C)CCCC1(C)C)=CC=CC(C)=Cc1cc(C=CC=C(C)C=CC2=C(C)CCCC2(C)C)cc[n+]1CCO [A2E, N-retinylidene-N-retinylethanolamine]
ligand activity at RAR [2]: endogenous ligand | absorbance change at 340 nm, A2E pre-complexed with SapB (HRP; 2:1 SapB:A2E ratio, + HRP + H2O2): very similar to that of a control mixture of HRP and H2O2 | absorbance, sequences (SapB+A2E)complex+CoQ10+HRP+H2O2 or (SapB+CoQ10)complex+A2E+HRP+H2O2 (HRP; SapB and CoQ10 present): absorbance values similar to the sequence (SapB+A2E)complex+HRP+H2O2 | damage to A2E, sequence (SapB+HRP)complex+A2E+H2O2 (HRP; SapB pre-complexed with HRP): partial damage | interference with ASA specific activity (arylsulfatase A (ASA)): does not interfere

From patent US10813981B2, “Saposin B binds the lipofuscin bisretinoid A2E and prevents its enzymatic and photo degradation” (Syracuse University, priority 2017, dated 2020)
